Source: patent US10258603B2 (priority 2014, dated 2019)

Molecular target: T1, CECR2 (Homo sapiens, UniProt Q9BXF3)
T1 construct: 424-538 was cloned, expressed, and purified to homogeneity; Flag; made in house
Assay: CECR2 TR-FRET Binding Assay
Details: IC50 (uM)
Description: IC50 Measurements for Inhibitors Using CECR2 TR-FRET Binding Assay

T1 sequence (Q9BXF3 424-538 limits assumed): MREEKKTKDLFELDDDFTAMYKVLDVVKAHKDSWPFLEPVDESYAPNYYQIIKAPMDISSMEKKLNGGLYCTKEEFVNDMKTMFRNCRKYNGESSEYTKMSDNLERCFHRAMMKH

IC50 [µM]	Compound
0.12	C=CCn1cc(C(=O)N(C)C2CCN(c3cc(OC)ncn3)CC2)c2cc[nH]c2c1=O [Example 162, 6-allyl-N-[1-(6-methoxypyrimidin-4-yl)-4-piperidyl]-N-methyl-7-oxo-1H-pyrrolo[2,3-c]pyridine-4-carboxamide]
0.21	C=CCn1cc(C(=O)N(C)C2CCN(c3cc(C(F)(F)F)ncn3)CC2)c2cc[nH]c2c1=O [Example 164, 6-allyl-N-methyl-7-oxo-N-[1-[6-(trifluoromethyl)pyrimidin-4-yl]-4-piperidyl]-1H-pyrrolo[2,3-c]pyridine-4-carboxamide]
0.042	C=CCn1cc(C(=O)N(C)C2CCN(c3cc(-n4cccn4)ncn3)CC2)c2cc[nH]c2c1=O [Example 170, 6-allyl-N-methyl-7-oxo-N-[1-(6-pyrazol-1-ylpyrimidin-4-yl)-4-piperidyl]-1H-pyrrolo[2,3-c]pyridine-4-carboxamide]
0.66	CC(c1ccccc1)N1CCC(N(C)C(=O)c2cn(C)c(=O)c3[nH]ccc23)CC1 (stereo not drawn) [Example 214]

Compound	IC50 [µM]
C=CCn1cc(C(=O)N(C)C2CCN(c3cc(C)nc(C)n3)CC2)c2cc[nH]c2c1=O [Example 165, 6-allyl-N-[1-(2,6-dimethylpyrimidin-4-yl)-4-piperidyl]-N-methyl-7-oxo-1H-pyrrolo[2,3-c]pyridine-4-carboxamide]	0.087

Same assay, conditions: read-out: IC50

Compound	IC50 [µM]
CN(C(=O)c1cn(C)c(=O)c2[nH]ccc12)C1CCN(c2cnccn2)CC1 [Example 143, N,6-dimethyl-7-oxo-N-(1-pyrazin-2-yl-4-piperidyl)-1H-pyrrolo[2,3-c]pyridine-4-carboxamide]	0.4
Cc1ccnc(N2CCC(N(C)C(=O)c3cn(C)c(=O)c4[nH]ccc34)CC2)n1 [Example 144, N,6-dimethyl-N-[1-(4-methylpyrimidin-2-yl)-4-piperidyl]-7-oxo-1H-pyrrolo[2,3-c]pyridine-4-carboxamide]	0.43
CN(C(=O)c1cn(C)c(=O)c2[nH]ccc12)C1CCN(c2cccnn2)CC1 [Example 145, N,6-dimethyl-7-oxo-N-(1-pyridazin-3-yl-4-piperidyl)-1H-pyrrolo[2,3-c]pyridine-4-carboxamide]	0.41
CN(C(=O)c1cn(C)c(=O)c2[nH]ccc12)C1CCN(c2ncc(F)cn2)CC1 [Example 147, N-[1-(5-fluoropyrimidin-2-yl)-4-piperidyl]-N,6-dimethyl-7-oxo-1H-pyrrolo[2,3-c]pyridine-4-carboxamide]	0.51
CN(CC1CCN(c2ccncn2)CC1)C(=O)c1cn(C)c(=O)c2[nH]ccc12 [Example 158, N,6-dimethyl-7-oxo-N-[(1-pyrimidin-4-yl-4-piperidyl)methyl]-1H-pyrrolo[2,3-c]pyridine-4-carboxamide]	0.79
C=CCn1cc(C(=O)N(C)C2CCN(c3ccnc(C#N)n3)CC2)c2cc[nH]c2c1=O [Example 160, 6-allyl-N-[1-(2-cyanopyrimidin-4-yl)-4-piperidyl]-N-methyl-7-oxo-1H-pyrrolo[2,3-c]pyridine-4-carboxamide]	0.18
C=CCn1cc(C(=O)N(C)C2CCN(c3ncnc4c3CCC4)CC2)c2cc[nH]c2c1=O [Example 163, 6-allyl-N-[1-(6,7-dihydro-5H-cyclopenta[d]pyrimidin-4-yl)-4-piperidyl]-N-methyl-7-oxo-1H-pyrrolo[2,3-c]pyridine-4-carboxamide]	0.091
C=CCn1cc(C(=O)N(C)C2CCN(c3cc(C(C)C)ncn3)CC2)c2cc[nH]c2c1=O [Example 167, 6-allyl-N-[1-(6-isopropylpyrimidin-4-yl)-4-piperidyl]-N-methyl-7-oxo-1H-pyrrolo[2,3-c]pyridine-4-carboxamide]	0.12
C=CCn1cc(C(=O)N(C)C2CCN(c3cc(C)nc(C4CC4)n3)CC2)c2cc[nH]c2c1=O [Example 168, 6-allyl-N-[1-(2-cyclopropyl-6-methyl-pyrimidin-4-yl)-4-piperidyl]-N-methyl-7-oxo-1H-pyrrolo[2,3-c]pyridine-4-carboxamide]	0.042
C=CCn1cc(C(=O)N(C)C2CCN(c3cncc(-n4cccn4)n3)CC2)c2cc[nH]c2c1=O [Example 169, 6-allyl-N-methyl-7-oxo-N-[1-(6-pyrazol-1-ylpyrazin-2-yl)-4-piperidyl]-1H-pyrrolo[2,3-c]pyridine-4-carboxamide]	0.023
CN(C(=O)c1cn(C)c(=O)c2[nH]ccc12)C1CCN(c2ccccc2)CC1 [Example 172, N,6-dimethyl-7-oxo-N-(1-phenyl-4-piperidyl)-1H-pyrrolo[2,3-c]pyridine-4-carboxamide]	1
Cc1cccc(N2CCC(N(C)C(=O)c3cn(C)c(=O)c4[nH]ccc34)CC2)c1 [Example 173, N,6-dimethyl-N-[1-(m-tolyl)-4-piperidyl]-7-oxo-1H-pyrrolo[2,3-c]pyridine-4-carboxamide]	0.99
CN(C(=O)c1cn(C)c(=O)c2[nH]ccc12)C1CCN(c2cccc(C(F)(F)F)c2)CC1 [Example 174, N,6-dimethyl-7-oxo-N-[1-[3-(trifluoromethyl)phenyl]-4-piperidyl]-1H-pyrrolo[2,3-c]pyridine-4-carboxamide]	0.59
CN(C(=O)c1cn(C)c(=O)c2[nH]ccc12)C1CCN(c2ccc(C(F)(F)F)cc2)CC1 [Example 175, N,6-dimethyl-7-oxo-N-[1-[4-(trifluoromethyl)phenyl]-4-piperidyl]-1H-pyrrolo[2,3-c]pyridine-4-carboxamide]	0.76
Cc1ccc(N2CCC(N(C)C(=O)c3cn(C)c(=O)c4[nH]ccc34)CC2)cc1 [Example 176, N,6-dimethyl-7-oxo-N-[1-(p-tolyl)-4-piperidyl]-1H-pyrrolo[2,3-c]pyridine-4-carboxamide]	0.93
CCc1cccc(N2CCC(N(C)C(=O)c3cn(C)c(=O)c4[nH]ccc34)CC2)c1 [Example 177, N-[1-(3-ethylphenyl)-4-piperidyl]-N,6-dimethyl-7-oxo-1H-pyrrolo[2,3-c]pyridine-4-carboxamide]	0.69
CCc1ccc(N2CCC(N(C)C(=O)c3cn(C)c(=O)c4[nH]ccc34)CC2)cc1 [Example 178, N-[1-(4-ethylphenyl)-4-piperidyl]-N,6-dimethyl-7-oxo-1H-pyrrolo[2,3-c]pyridine-4-carboxamide]	0.74
CN1CCC(CCN(C)C(=O)c2cn(C)c(=O)c3[nH]ccc23)CC1 [Example 181, N,6-dimethyl-N-[2-(1-methyl-4-piperidyl)ethyl]-7-oxo-1H-pyrrolo[2,3-c]pyridine-4-carboxamide]	0.73
CCN1CCC(CCN(C)C(=O)c2cn(C)c(=O)c3[nH]ccc23)CC1 [Example 182]	0.41
CC(C)N1CCC(CCN(C)C(=O)c2cn(C)c(=O)c3[nH]ccc23)CC1 [Example 183]	0.49

More lines, now with the values ahead:

IC50 [µM]	Compound
0.47	CN(CCC1CCN(C2CCC2)CC1)C(=O)c1cn(C)c(=O)c2[nH]ccc12 [Example 184]
0.91	COCCN1CCC(CCN(C)C(=O)c2cn(C)c(=O)c3[nH]ccc23)CC1 [Example 185]
0.79	CN(CC1CCN(CC2CCCC2)CC1)C(=O)c1cn(C)c(=O)c2[nH]ccc12 [Example 187, N-[[1-(cyclopentylmethyl)-4-piperidyl]methyl]-N,6-dimethyl-7-oxo-1H-pyrrolo[2,3-c]pyridine-4-carboxamide]
2	CN1CCC(CN(C)C(=O)c2cn(C)c(=O)c3[nH]ccc23)CC1 [Example 188]
1	CN(CC1CCN(C2CCC2)CC1)C(=O)c1cn(C)c(=O)c2[nH]ccc12 [Example 189]
0.59	CCN1CCC(CN(C)C(=O)c2cn(C)c(=O)c3[nH]ccc23)CC1 [Example 191]
1.4	CN(CC1CCN(C2CC2)CC1)C(=O)c1cn(C)c(=O)c2[nH]ccc12 [Example 192]
0.73	CC(c1ccccc1)N1CCC(CN(C)C(=O)c2cn(C)c(=O)c3[nH]ccc23)CC1 (stereo not drawn) [Example 197]
0.99	CN(CC1CCN(Cc2ccccc2F)CC1)C(=O)c1cn(C)c(=O)c2[nH]ccc12 [Example 201]
1.3	CN(CC1CCN(Cc2cccc(F)c2)CC1)C(=O)c1cn(C)c(=O)c2[nH]ccc12 [Example 202]
1.1	CN(CC1CCN(Cc2ccc(F)cc2)CC1)C(=O)c1cn(C)c(=O)c2[nH]ccc12 [Example 203]
1.1	Cc1cccc(CN2CCC(CN(C)C(=O)c3cn(C)c(=O)c4[nH]ccc34)CC2)c1 [Example 204]
0.71	CN(CC1CCN(C2CCCC2)CC1)C(=O)c1cn(C)c(=O)c2[nH]ccc12 [Example 205]
0.37	CN(CC1CCN(CC2CCCCC2)CC1)C(=O)c1cn(C)c(=O)c2[nH]ccc12 [Example 206]
0.81	CC(C)CN1CCC(N(C)C(=O)c2cn(C)c(=O)c3[nH]ccc23)CC1 [Example 207, N-(1-isobutyl-4-piperidyl)-N,6-dimethyl-7-oxo-1H-pyrrolo[2,3-c]pyridine-4-carboxamide]
1.2	CN(C(=O)c1cn(C)c(=O)c2[nH]ccc12)C1CCN(CC2CC2)CC1 [Example 208]
2.2	CN1CCC(C)(CNC(=O)c2cn(C)c(=O)c3[nH]ccc23)CC1 [Example 211, N-[(1,4-dimethyl-4-piperidyl)methyl]-6-methyl-7-oxo-1H-pyrrolo[2,3-c]pyridine-4-carboxamide]
1.7	CC(C)N1CCC(C)(CNC(=O)c2cn(C)c(=O)c3[nH]ccc23)CC1 [Example 212, N-[(1-isopropyl-4-methyl-4-piperidyl)methyl]-6-methyl-7-oxo-1H-pyrrolo[2,3-c]pyridine-4-carboxamide]
0.71	CN(C(=O)c1cn(C)c(=O)c2[nH]ccc12)C1CCN(Cc2ccc(C#N)cc2)CC1 [Example 213, N-[1-[(4-cyanophenyl)methyl]-4-piperidyl]-N,6-dimethyl-7-oxo-1H-pyrrolo[2,3-c]pyridine-4-carboxamide]
1.2	CN(C(=O)c1cn(C)c(=O)c2[nH]ccc12)C1CCN(Cc2ccccc2F)CC1 [Example 216]
0.77	Cc1ccc(CN2CCC(N(C)C(=O)c3cn(C)c(=O)c4[nH]ccc34)CC2)cc1 [Example 218]
1.1	CN(C(=O)c1cn(C)c(=O)c2[nH]ccc12)C1CCN(Cc2cccc(C#N)c2)CC1 [Example 220]
0.67	COc1ccc(CN2CCC(N(C)C(=O)c3cn(C)c(=O)c4[nH]ccc34)CC2)cc1 [Example 221]
